The record followed here is patent US20040248954A1, “Cycloalkylsulfanyl substituted benzo[b]thiophenes as therapeutic agents” (priority 2003, published 2004).

This assay deals with T1, p101/p110γ protein (PI3Kγ) (Homo sapiens, UniProt P48736).
T1 construct: HA; made in house; host or cells: Spodoptera frugiperda (Sf9) cells, baculovirus coinfection
T1 sequence (P48736 whole entry, species assumed): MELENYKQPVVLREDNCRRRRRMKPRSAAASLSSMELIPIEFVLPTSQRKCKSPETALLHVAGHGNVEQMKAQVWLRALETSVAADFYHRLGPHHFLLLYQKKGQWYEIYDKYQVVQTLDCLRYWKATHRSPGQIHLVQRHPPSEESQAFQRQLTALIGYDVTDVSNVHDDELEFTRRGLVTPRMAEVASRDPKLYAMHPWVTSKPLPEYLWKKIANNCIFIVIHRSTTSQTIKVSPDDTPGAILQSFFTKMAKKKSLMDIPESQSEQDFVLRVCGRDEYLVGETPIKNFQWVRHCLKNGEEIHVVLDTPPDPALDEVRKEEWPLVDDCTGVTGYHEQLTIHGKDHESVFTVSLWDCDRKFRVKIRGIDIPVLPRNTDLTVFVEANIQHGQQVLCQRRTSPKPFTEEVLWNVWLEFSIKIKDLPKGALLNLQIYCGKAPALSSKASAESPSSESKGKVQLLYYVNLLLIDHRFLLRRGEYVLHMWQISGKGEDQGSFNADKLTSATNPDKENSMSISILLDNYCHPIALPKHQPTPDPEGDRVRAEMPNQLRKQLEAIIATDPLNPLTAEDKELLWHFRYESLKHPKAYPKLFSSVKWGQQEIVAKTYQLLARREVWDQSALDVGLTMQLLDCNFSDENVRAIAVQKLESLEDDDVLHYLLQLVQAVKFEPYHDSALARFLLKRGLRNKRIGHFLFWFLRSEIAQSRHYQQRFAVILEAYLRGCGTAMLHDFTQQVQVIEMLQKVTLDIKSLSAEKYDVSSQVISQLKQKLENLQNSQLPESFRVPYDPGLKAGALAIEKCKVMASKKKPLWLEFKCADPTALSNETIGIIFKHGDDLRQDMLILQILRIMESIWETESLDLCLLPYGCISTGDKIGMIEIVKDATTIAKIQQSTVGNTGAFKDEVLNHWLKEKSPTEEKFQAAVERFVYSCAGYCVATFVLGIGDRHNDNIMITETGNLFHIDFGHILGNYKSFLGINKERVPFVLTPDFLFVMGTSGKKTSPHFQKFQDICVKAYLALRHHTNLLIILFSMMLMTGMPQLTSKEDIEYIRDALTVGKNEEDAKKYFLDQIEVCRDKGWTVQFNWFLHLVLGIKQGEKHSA
T1 sequence (Q8WYR1 whole entry partner, species assumed): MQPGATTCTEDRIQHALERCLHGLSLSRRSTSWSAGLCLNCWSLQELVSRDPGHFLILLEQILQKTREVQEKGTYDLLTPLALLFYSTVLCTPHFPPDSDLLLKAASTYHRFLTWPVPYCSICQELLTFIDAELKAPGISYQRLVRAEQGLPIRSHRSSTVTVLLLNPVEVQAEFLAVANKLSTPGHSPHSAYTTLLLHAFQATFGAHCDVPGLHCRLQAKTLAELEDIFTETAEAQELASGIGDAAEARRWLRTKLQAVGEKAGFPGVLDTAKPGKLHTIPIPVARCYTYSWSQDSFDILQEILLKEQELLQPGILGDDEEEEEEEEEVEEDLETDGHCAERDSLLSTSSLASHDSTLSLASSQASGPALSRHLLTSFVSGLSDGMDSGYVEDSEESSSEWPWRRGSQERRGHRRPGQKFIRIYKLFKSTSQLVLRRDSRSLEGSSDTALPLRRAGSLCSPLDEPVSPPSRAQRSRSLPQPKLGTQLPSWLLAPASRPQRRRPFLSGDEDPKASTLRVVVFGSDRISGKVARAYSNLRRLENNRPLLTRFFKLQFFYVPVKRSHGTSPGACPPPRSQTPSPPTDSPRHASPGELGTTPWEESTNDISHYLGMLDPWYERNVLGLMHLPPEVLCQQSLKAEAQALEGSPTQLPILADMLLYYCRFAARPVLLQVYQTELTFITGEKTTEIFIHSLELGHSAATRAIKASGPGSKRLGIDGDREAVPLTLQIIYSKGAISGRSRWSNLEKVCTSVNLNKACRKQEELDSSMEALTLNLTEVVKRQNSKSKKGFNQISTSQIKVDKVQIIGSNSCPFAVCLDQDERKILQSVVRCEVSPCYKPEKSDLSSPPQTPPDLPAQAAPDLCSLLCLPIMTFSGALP
Briefly: PI3Kγ in vitro kinase assay. The assay is classed as biochemical. Particulars: purified recombinant p101/p110γ with G protein β1/γ2 subunits, 20 μM ATP, 25 μM PIP2, 20 minutes at room temperature. The method, then:
Spodtera frugiperda cells, grown in ESF921 media, were coinfected with baculovirus expressing a glu-tagged pO1 and baculovirus expressing an HA-tagged p110γ, at a 3:1 ratio of p101 baculovirus to p110γ baculovirus. Sf9 cells were grown to 1×10^7 total cells/mL in 10 L bioreactors and harvested 48-72 hours post infection. Samples of infected cells were then tested for expression of p101/p110γ PI3 kinase by immunoprecipitation and Western Blot analysis methods (see below).
To purify PI3Kγ, 4 volumes of room temperature hypotonic lysis buffer (1 mM MgCl2, 1 mM DTT, 5 mM EGTA, 1 mM Pefabloc, 0.5 μM aprotinin, 5 μM leupeptin, 2 μM pepstatin, 5 μM E64, pH 8) per gram of cell paste, was poured onto frozen cell pellets with stirring, then lysed in a nitrogen “bomb” at 400 psi (599HC T316, Parr Instrument Co, Moline, Ill.). NaCl was added to 150 mM, and sodium cholate was added to 1% and mixed for another 45 minutes. The lysates were clarified by centrifugation for 25 minutes at 14,000 rpm. The lysates were then loaded over anti-glu-linked Protein-G Sepaharose beads (Covance Research Products, Richmond, Calif.) using 20 mL resin/50 g cell paste. The column was washed with 15 volumes of wash buffer (1 mM DTT, 0.2 mM EGTA, 1 mM Pefabloc, 0.5 μM aprotinin, 5 μM leupeptin, 2 μM pepstatin, 5 μM E64, 150 mM NaCl, 1% sodium cholate, pH 8). PI3Kγ was eluted with 6 column volumes of wash buffer that contain 100 μg/mL of a peptide that competes for binding of the glu tag. The column fractions with the eluted protein (determined by taking OD280 readings) were collected and dialyzed in 0.2 mM EGTA, 1 mM DTT, 1 mM Pefabloc, 5 μM leupeptin, 0.5% sodium cholate, 150 mM NaCl, and 50% glycerol, pH 8. The fractions were stored at −80° C. until further use.
Spodtera frugiperda cells were coinfected with baculovirus expressing a glu-tagged G protein β1 and baculovirus expressing a G protein β2, at a 1:1 ratio of glu-tagged G protein β1 baculovirus to G protein β2 baculovirus. Sf9 cells are grown in 10 L bioreactors and harvested 48-72 hours post infection. Samples of infected cells were tested for G protein β1/β2 expression by Western Blot analysis, as described below. Cell lysates were homogenized and loaded onto a column of glu-tagged beads as in Biological Example 1 and competed off the column with a glu peptide and processed as described in Biological Example 1.
The inhibitory properties of the compounds in Table 1 were assayed in an in vitro PI3K assay. In a 96-well polypropylene plate, each well was spotted with 2 μL of 50 times the desired final concentration of compound in DMSO. Purified recombinant p101/p110γ protein (0.03 μg; ˜2.7 nM) and G protein β1/γ2 subunits (0.09 μg; ˜57.7 nM) for each reaction was combined in the assay buffer (30 mM HEPES, 100 mM NaCl, 1 mM EGTA, and 1 mM DTT). ATP and [γ-^32P-ATP] (0.09 μCi) were added to this mixture so that the final ATP concentration in the reaction was 20 μM. Lipid micelles were formed by sonicating phosphatidylinositol4,5-diphosphate (PIP2), phosphatidylethanolamine (PE), and Na-cholate in the assay buffer for 10 minutes, adding MgCl2 and incubating on ice for 20 minutes, for final concentrations of 25 μM PIP2, 300 μM PE, 0.02% Na-cholate, and 10 mM MgCl2 in the reaction. The reactions were started by adding equal volumes lipid and enzyme mixture in a total volume of 50 μL, allowed to run for 20 minutes at room temperature, and stopped with 100 μL 75 mM H3PO4. The lipid product was transderred to a glass fiber filter plate and washed with 75 mM H3PO4 severa; times. The presence of radioactive lipid product (PIP3) was measured by adding Wallac Optiphase mix to each well and counting in a Wallac 1450 Trilux plate reader (perkinElmer Life Sciences Inc., Boston, Mass. 02118). The IC50 for each compound tested is reported in μM in Table 1: […]
With `CCOc1ccc2sc(C(=O)Nc3nnn[nH]3)c(SC3CCCC3)c2c1` [Example 9, 3-Cyclopentylsulfanyl-5-ethoxy-benzo[b]thiophene-2-carboxylic acid (1H-tetrazol-5-yl)-amide], the IC50 (usually the concentration that inhibits the measured activity by half) was 2.13 µM. Take `COc1ccc2sc(C(=O)Nc3nnn[nH]3)c(SC3CCCC3)c2c1` [Example 3, 3-cyclopentylsulfanyl-5-methoxy-benzo[b]thiophene-2-carboxylic acid (1H-tetrazol-5-yl)-amide]: the IC50 came out at 1.19 µM.

For `COc1cc2sc(C(=O)Nc3nnn[nH]3)c(SCC3CC3)c2cc1OC` [Example 15, 3-Cyclopropylmethylsulfanyl-5,6-dimethoxy-benzo[b]thiophene-2-carboxylic acid (1H-tetrazol-5-yl)-amide], the IC50 came to 0.243 µM.

`COc1cc2sc(C(=O)Nc3nnn[nH]3)c(SC3CCCC3)c2cc1OC` [Example 5, 3-cyclopentylsulfanyl-5,6-dimethoxy-benzo[b]thiophene-2-carboxylic acid (1H-tetrazol-5-yl)-amide]: the IC50 was determined as 0.249 µM. For the compound `COc1cc2sc(C(=O)Nc3nnn[nH]3)c(SC3CCCC3)c2cc1C` [Example 7, 3-Cyclopentylsulfanyl-6-methoxy-5-methyl-benzo[b]thiophene-2-carboxylic acid (1H-tetrazol-5-yl)-amide], the IC50 stood at 0.118 µM. As to `COc1cc2sc(C(=O)Nc3nnn[nH]3)c(SC3CCCCC3)c2cc1OC` [Example 6, 3-Cyclohexylsulfanyl-5,6-dimethoxy-benzo[b]thiophene-2-carboxylic acid (1H-tetrazol-5-yl)-amide], the half-maximal inhibitory concentration (IC50) is 0.121 µM.

For the compound `COc1cc2c(SC3CCCCC3)c(C(=O)Nc3nnn[nH]3)sc2cc1C` [Example 11, 3-Cyclohexylsulfanyl-5-methoxy-6-methyl-benzo[b]thiophene-2-carboxylic acid (1H-tetrazol-5-yl)-amide], the IC50 stood at 0.035 µM. Next, `COc1cc2c(SC3CCCCC3)c(C(=O)Nc3nnn[nH]3)sc2cc1COCc1ccccc1` [Example 14, 6-Benzyloxymethyl-3-cyclohexylsulfanyl-5-methoxy-benzo[b]thiophene-2-carboxylic acid (1H-tetrazol-5-yl)-amide]: 0.64 µM; `COc1cc2sc(C(=O)Nc3nnn[nH]3)c(SCC3CCCCC3)c2cc1OC` [Example 2, 3-cyclohexylmethylsulfanyl-5,6-dimethoxy-benzo[b]thiophene-2-carboxylic acid (1H-tetrazol-5-yl)-amide]: 3.81 µM. As for `COc1ccc2sc(C(=O)Nc3nnn[nH]3)c(SCC3CCCCC3)c2c1` [Example 1, 3-Cyclohexylmethylsulfanyl-5-methoxy-benzo[b]thiophene-2-carboxylic acid (1H-tetrazol-5-yl)-amide], the IC50 came to 0.092 µM. Then `COCc1cc2sc(C(=O)Nc3nnn[nH]3)c(SC3CCCCC3)c2cc1OC` [Example 12, 3-Cyclohexylsulfanyl-5-methoxy-6-methoxymethyl-benzo[b]thiophene-2-carboxylic acid (1H-tetrazol-5-yl)-amide], with 0.495 µM. For the compound `CCOc1ccc2sc(C(=O)Nc3nnn[nH]3)c(SC3CCCCC3)c2c1` [Example 10, 3-Cyclohexylsulfanyl-5-ethoxy-benzo[b]thiophene-2-carboxylic acid (1H-tetrazol-5-yl)-amide], the IC50 turned out to be 1.55 µM. Take `COc1cc2sc(C(=O)Nc3nnn[nH]3)c(SC3CCCCC3)c2cc1C` [Example 8, 3-Cyclohexylsulfanyl-6-methoxy-5-methyl-benzo[b]thiophene-2-carboxylic acid (1H-tetrazol-5-yl)-amide]: the IC50 amounted to 0.047 µM. Regarding `CCOCc1cc2sc(C(=O)Nc3nnn[nH]3)c(SC3CCCCC3)c2cc1OC` [Example 13, 3-Cyclohexylsulfanyl-6-ethoxymethyl-5-methoxy-benzo[b]thiophene-2-carboxylic acid (1H-tetrazol-5-yl)-amide], the IC50 came out at 0.175 µM. As to `COc1ccc2sc(C(=O)Nc3nnn[nH]3)c(SC3CCCCC3)c2c1` [Example 4, 3-cyclohexylsulfanyl-5-methoxy-benzo[b]thiophene-2-carboxylic acid (1H-tetrazol-5-yl)-amide], the half-maximal inhibitory concentration (IC50) worked out at 0.382 µM.
